MIC and zone of inhibition data for three compounds are collected here from ChEMBL document CHEMBL3822364, “Synthesis, characterization and antimicrobial activity of novel Schiff base tethered boronate esters of 1,2-O-isopropylidene-α-d-xylofuranose” (2016).

In general, MIC refers to the lowest concentration found to suppress growth.

Converted amounts (≈) assume the structure as drawn.

The first assay has as its system Staphylococcus aureus. The experiment in a line: Antibacterial activity against Staphylococcus aureus MTCC 3160 measured after 24 hrs by NCCL protocol based broth dilution method. The format is functional. Conditions: MTCC 3160, 24 h.
In the case of `O=[N+]([O-])c1ccc(O)c(/C=N/c2cccc(B(O)O)c2)c1`, the lowest concentration to inhibit growth (MIC) was 500 µg/mL (≈ 1750 µM).
Same read-out and setting: to `Cc1ccc(/N=C/c2cccc(B(O)O)c2)cc1` belongs 500 µg/mL (≈ 2090 µM); to `CC1(C)O[C@H]2O[C@@H]3COB(c4ccc(C=O)cc4)O[C@@H]3[C@H]2O1`, 125 µg/mL (≈ 411 µM).

In a further assay the test system is Salmonella typhi. The experiment in a line: Antibacterial activity against Salmonella typhi assessed as zone of inhibition at 100 ug/well measured after 24 hrs by agar well diffusion method. The format is functional, Salmonella enterica subsp. enterica serovar Typhi. To be noted: Salmonella enterica, read-out: DIZ. A general note: A growth-free zone around the sample is the usual read-out of agar diffusion tests.
As to `O=[N+]([O-])c1ccc(O)c(/C=N/c2cccc(B(O)O)c2)c1`, the zone of inhibition at 100 µg/disc was determined as 11 mm.
Turning to `Cc1ccc(/N=C/c2cccc(B(O)O)c2)cc1`, the zone of inhibition at 100 µg/disc was 8 mm.
As for `CC1(C)O[C@H]2O[C@@H]3COB(c4ccc(C=O)cc4)O[C@@H]3[C@H]2O1`, the zone of inhibition at 100 µg/disc came to 22 mm.

A further assay deals with Streptococcus mutans. Description: Antibacterial activity against Streptococcus mutans MTCC 497 assessed as zone of inhibition at 100 ug/well measured after 24 hrs by agar well diffusion method. It is filed as functional. Conditions: MTCC 497, 24 h, read-out: DIZ.
For the compound `O=[N+]([O-])c1ccc(O)c(/C=N/c2cccc(B(O)O)c2)c1`, the zone of inhibition at 100 µg/disc was 9 mm.
Same read-out and setting: to `Cc1ccc(/N=C/c2cccc(B(O)O)c2)cc1` belongs 9 mm; to `CC1(C)O[C@H]2O[C@@H]3COB(c4ccc(C=O)cc4)O[C@@H]3[C@H]2O1`, 21 mm.

The test system of a further assay is Salmonella typhi. The experiment in a line: Antibacterial activity against Salmonella typhi measured after 24 hrs by NCCL protocol based broth dilution method. Conditions: Salmonella enterica. It is filed as functional, Salmonella enterica subsp. enterica serovar Typhi. Background: Dilution methods test growth across graded concentrations, often in twofold steps.
Take `O=[N+]([O-])c1ccc(O)c(/C=N/c2cccc(B(O)O)c2)c1`: the minimal inhibitory concentration (MIC) was 500 µg/mL (≈ 1750 µM).
Still for that read-out and setting: to `Cc1ccc(/N=C/c2cccc(B(O)O)c2)cc1` belongs 500 µg/mL (≈ 2090 µM).
In turn, `CC1(C)O[C@H]2O[C@@H]3COB(c4ccc(C=O)cc4)O[C@@H]3[C@H]2O1` yielded an MIC of 31.2 µg/mL (≈ 103 µM).

In a further assay the test system is Salmonella paratyphi. The experiment in a line: Antibacterial activity against Salmonella paratyphi assessed as zone of inhibition at 100 ug/well measured after 24 hrs by agar well diffusion method. It is filed as functional, Salmonella enterica subsp. enterica serovar Paratyphi A. To be noted: Salmonella enterica, read-out: DIZ.
`O=[N+]([O-])c1ccc(O)c(/C=N/c2cccc(B(O)O)c2)c1`: the zone of inhibition at 100 µg/disc came out at 0 mm.
Still for that read-out and setting: the value for `Cc1ccc(/N=C/c2cccc(B(O)O)c2)cc1` was 0 mm.
Same read-out and setting: the value for `CC1(C)O[C@H]2O[C@@H]3COB(c4ccc(C=O)cc4)O[C@@H]3[C@H]2O1` was 21 mm.

The subject of another assay is Staphylococcus aureus. Description: Antibacterial activity against Staphylococcus aureus MTCC 3160 assessed as zone of inhibition at 100 ug/well measured after 24 hrs by agar well diffusion method. It is filed as functional. Conditions: MTCC 3160, 24 h, read-out: DIZ.
Turning to `O=[N+]([O-])c1ccc(O)c(/C=N/c2cccc(B(O)O)c2)c1`, the zone of inhibition at 100 µg/disc turned out to be 8 mm.
With `Cc1ccc(/N=C/c2cccc(B(O)O)c2)cc1`, the zone of inhibition at 100 µg/disc is 8 mm.
On the same count and under the same terms, to `CC1(C)O[C@H]2O[C@@H]3COB(c4ccc(C=O)cc4)O[C@@H]3[C@H]2O1` belongs 12 mm.

A further assay deals with Micrococcus luteus. Description: Antibacterial activity against Micrococcus luteus MTCC 106 measured after 24 hrs by NCCL protocol based broth dilution method. The format is functional. To be noted: MTCC 106, 24 h.
For `O=[N+]([O-])c1ccc(O)c(/C=N/c2cccc(B(O)O)c2)c1`, the minimal inhibitory concentration (MIC) came out at 250 µg/mL (≈ 874 µM).
As for `Cc1ccc(/N=C/c2cccc(B(O)O)c2)cc1`, the minimal inhibitory concentration (MIC) is 500 µg/mL (≈ 2090 µM).
For the compound `CC1(C)O[C@H]2O[C@@H]3COB(c4ccc(C=O)cc4)O[C@@H]3[C@H]2O1`, the lowest concentration to inhibit growth (MIC) was 125 µg/mL (≈ 411 µM).

A further assay has as its system Aspergillus fumigatus. Description: Antifungal activity against Aspergillus fumigatus MTCC 343 assessed as zone of inhibition at 100 ug/well measured after 48 hrs by agar well diffusion method. It is filed as functional. Conditions: MTCC 343, 48 h, read-out: DIZ.
In the case of `O=[N+]([O-])c1ccc(O)c(/C=N/c2cccc(B(O)O)c2)c1`, the zone of inhibition at 100 µg/disc was found to be 0 mm.
Still for that read-out and setting: to `Cc1ccc(/N=C/c2cccc(B(O)O)c2)cc1` belongs 0 mm; to `CC1(C)O[C@H]2O[C@@H]3COB(c4ccc(C=O)cc4)O[C@@H]3[C@H]2O1`, 0 mm.

The subject of the next assay is Klebsiella pneumoniae. Description: Antibacterial activity against Klebsiella pneumoniae MTCC 3384 assessed as zone of inhibition at 100 ug/well measured after 24 hrs by agar well diffusion method. The format is functional. Conditions: MTCC 3384, 24 h, read-out: DIZ.
Take `O=[N+]([O-])c1ccc(O)c(/C=N/c2cccc(B(O)O)c2)c1`: the zone of inhibition at 100 µg/disc came to 0 mm.
The same measure, in the same setting: the value for `Cc1ccc(/N=C/c2cccc(B(O)O)c2)cc1` was 0 mm; that for `CC1(C)O[C@H]2O[C@@H]3COB(c4ccc(C=O)cc4)O[C@@H]3[C@H]2O1` was 20 mm.

In the next assay the test system is Candida albicans. The experiment in a line: Antifungal activity against Candida albicans MTCC 3017 assessed as zone of inhibition at 100 ug/well measured after 48 hrs by agar well diffusion method. The format is functional. To be noted: MTCC 3017, 48 h, read-out: DIZ.
In the case of `O=[N+]([O-])c1ccc(O)c(/C=N/c2cccc(B(O)O)c2)c1`, the zone of inhibition at 100 µg/disc came out at 0 mm.
Regarding `Cc1ccc(/N=C/c2cccc(B(O)O)c2)cc1`, the zone of inhibition at 100 µg/disc amounted to 0 mm.
In the case of `CC1(C)O[C@H]2O[C@@H]3COB(c4ccc(C=O)cc4)O[C@@H]3[C@H]2O1`, the zone of inhibition at 100 µg/disc turned out to be 18 mm.

The subject of a further assay is Candida albicans. The experiment in a line: Antifungal activity against Candida albicans MTCC 3017 measured after 48 hrs by NCCL protocol based broth dilution method. It is filed as functional. To be noted: MTCC 3017, 48 h.
Regarding `O=[N+]([O-])c1ccc(O)c(/C=N/c2cccc(B(O)O)c2)c1`, the MIC was 500 µg/mL (≈ 1750 µM).
On the same count and under the same terms, to `Cc1ccc(/N=C/c2cccc(B(O)O)c2)cc1` belongs 500 µg/mL (≈ 2090 µM); to `CC1(C)O[C@H]2O[C@@H]3COB(c4ccc(C=O)cc4)O[C@@H]3[C@H]2O1`, 125 µg/mL (≈ 411 µM).

In a further assay the test system is Klebsiella pneumoniae. Description: Antibacterial activity against Klebsiella pneumoniae MTCC 3384 measured after 24 hrs by NCCL protocol based broth dilution method. It is filed as functional. To be noted: MTCC 3384, 24 h.
`O=[N+]([O-])c1ccc(O)c(/C=N/c2cccc(B(O)O)c2)c1` yielded a minimum inhibitory concentration (MIC) of 500 µg/mL (≈ 1750 µM).
`Cc1ccc(/N=C/c2cccc(B(O)O)c2)cc1` displayed an MIC of 500 µg/mL (≈ 2090 µM).
`CC1(C)O[C@H]2O[C@@H]3COB(c4ccc(C=O)cc4)O[C@@H]3[C@H]2O1` displayed an MIC of 62.5 µg/mL (≈ 206 µM).

A further assay has as its system Aspergillus fumigatus. The experiment in a line: Antifungal activity against Aspergillus fumigatus MTCC 343 measured after 48 hrs by NCCL protocol based broth dilution method. It is filed as functional. To be noted: MTCC 343, 48 h.
The compound `O=[N+]([O-])c1ccc(O)c(/C=N/c2cccc(B(O)O)c2)c1` registered an MIC of 500 µg/mL (≈ 1750 µM).
Consider `Cc1ccc(/N=C/c2cccc(B(O)O)c2)cc1`, for which the MIC was 500 µg/mL (≈ 2090 µM).
For the compound `CC1(C)O[C@H]2O[C@@H]3COB(c4ccc(C=O)cc4)O[C@@H]3[C@H]2O1`, inhibition of growth (MIC) required 250 µg/mL (≈ 822 µM).

Another assay concerns Micrococcus luteus. The experiment in a line: Antibacterial activity against Micrococcus luteus MTCC 106 assessed as zone of inhibition at 100 ug/well measured after 24 hrs by agar well diffusion method. The format is functional. Conditions: MTCC 106, 24 h, read-out: DIZ.
With `O=[N+]([O-])c1ccc(O)c(/C=N/c2cccc(B(O)O)c2)c1`, the zone of inhibition at 100 µg/disc is 0 mm.
Consider `Cc1ccc(/N=C/c2cccc(B(O)O)c2)cc1`, for which the zone of inhibition at 100 µg/disc amounted to 0 mm.
On the same count and under the same terms, the value for `CC1(C)O[C@H]2O[C@@H]3COB(c4ccc(C=O)cc4)O[C@@H]3[C@H]2O1` was 12 mm.

The next assay deals with Salmonella paratyphi. The experiment in a line: Antibacterial activity against Salmonella paratyphi measured after 24 hrs by NCCL protocol based broth dilution method. It is filed as functional, Salmonella enterica subsp. enterica serovar Paratyphi A. Conditions: Salmonella enterica.
The compound `O=[N+]([O-])c1ccc(O)c(/C=N/c2cccc(B(O)O)c2)c1` returned a minimum inhibitory concentration (MIC) of 500 µg/mL (≈ 1750 µM).
Compound `Cc1ccc(/N=C/c2cccc(B(O)O)c2)cc1` returned an MIC of 500 µg/mL (≈ 2090 µM).
On to `CC1(C)O[C@H]2O[C@@H]3COB(c4ccc(C=O)cc4)O[C@@H]3[C@H]2O1`, for which it took 31.2 µg/mL (≈ 103 µM) to inhibit growth (MIC).

The test system of a further assay is Streptococcus mutans. The experiment in a line: Antibacterial activity against Streptococcus mutans MTCC 497 measured after 24 hrs by NCCL protocol based broth dilution method. Conditions: MTCC 497, 24 h. The format is functional.
`O=[N+]([O-])c1ccc(O)c(/C=N/c2cccc(B(O)O)c2)c1`: the MIC came to 125 µg/mL (≈ 437 µM).
Compound `Cc1ccc(/N=C/c2cccc(B(O)O)c2)cc1` displayed a minimum inhibitory concentration (MIC) of 250 µg/mL (≈ 1050 µM).
For `CC1(C)O[C@H]2O[C@@H]3COB(c4ccc(C=O)cc4)O[C@@H]3[C@H]2O1`, the minimal inhibitory concentration (MIC) was 62.5 µg/mL (≈ 206 µM).
